Reference: PMC11181328 (Journal of Medicinal Chemistry, 2024)
Counter-ions that a name gives are not always drawn.

How the values were obtained:
[1] = biological target: T1, DOR (Homo sapiens, UniProt P41143); test: Competitive radioligand binding assay, DOR
T1 construct: expressed in transfected cells; membrane homogenate

[2] = biological target: T2, KOR (Mus musculus, UniProt P33534); test: Competitive radioligand binding assay, KOR; details: for radioligand binding affinity (Ki, nM) KOR: [3H]diprenorphine, mKOR-CHO membranes; for selectivity ratio δ/κ / selectivity ratio μ/κ: ratio of Ki values
T2 construct: expressed in transfected cells; membrane homogenate

[3] = biological target: T3, MOR (Mus musculus, UniProt P42866); test: Competitive radioligand binding assay, MOR; set-up: expressed in transfected cells; membrane homogenate; details: for radioligand binding affinity (Ki, nM) MOR: [3H]naloxone, mMOR-CHO membranes
[4] = biological target: T3, MOR; test: [35S]-GTPγS functional assay, MOR; type: biochemical; set-up: expressed in transfected cells; membrane homogenate; details: for EC50: mMOR-CHO membranes; for Emax: read-out: [35S]-GTPγS functional activity MOR Emax (%)
[5] = tested on: male Swiss Webster mice; test: Warm-water tail immersion assay, agonism (single dose screen and potency); type: in vivo, mouse; details: for ED50: Mus musculus, sc, read-out: potency ED50 [95% CI] mg/kg, s.c., 20 min prior to tail withdrawal latency measurement, male Swiss Webster mice; for percent MPE / antinociception compared to the vehicle group: single dose 10 mg/kg s.c.; for percent MPE: withdrawal latency 20 min after administration; for antinociception compared to the vehicle group: 20 min
[6] = biological target: T1, DOR; test: [35S]-GTPγS functional assay, DOR; type: biochemical; details: for EC50: hDOR-CHO membranes; for Emax: percent of SNC80 full agonist control
[7] = biological target: T2, KOR; test: [35S]-GTPγS functional assay, KOR; type: biochemical; details: for EC50: mKOR-CHO membranes; for Emax: percent of U50,488 full agonist control

Structure (SMILES)	Ki [1]	Ki [2]	radioligand binding affinity (Ki, nM) KOR [2]	Ki [3]	EC50 [4]	Emax [4]	ED50 [5]	percent MPE [5]	EC50 [6]	Emax [6]	selectivity ratio δ/κ [2]	antinociception compared to the vehicle group [5]	EC50 [7]	Emax [7]	selectivity ratio μ/κ [2]	radioligand binding affinity (Ki, nM) DOR ([1]; [3H]diprenorphine, hDOR-CHO membranes)	radioligand binding affinity (Ki, nM) MOR [3]
CN(C(=O)CCc1ccoc1)[C@H]1CC[C@@]2(O)[C@H]3Cc4cccc5c4[C@@]2(CCN3CC2CC2)[C@H]1O5 [Compound 1, 17-Cyclopropylmethyl-4,5α-epoxy-6α-[3′-(furan-3″-yl)N-methylpropanamido]-14β-hydroxymorphinan Hydrochloride]	48.6 ± 6.51 nM	0.48 ± 0.07 nM	subnanomolar	7.74 ± 0.69 nM	20 ± 3.49 nM	11.5 ± 0.81%	0.553 mg/kg	≥ 80%	137 ± 26.5 nM	56.4 ± 2.6%							
O=C(CCc1ccoc1)N[C@H]1CC[C@@]2(O)[C@H]3Cc4cccc5c4[C@@]2(CCN3CC2CC2)[C@H]1O5 [Compound 2, 17-Cyclopropylmethyl-4,5α-epoxy-6α-[3′-(furan-3″-yl)propanamido]-14β-hydroxymorphinan Hydrochloride]	154 ± 26.5 nM	161 ± 11.8 nM		54.5 ± 2.01 nM	200 ± 63.1 nM	8.8 ± 0.55%			429 ± 62.6 nM	> 80%	1	lack of significant antinociceptive effect	1010 ± 176 nM	66.1 ± 5.2%			
CN(C(=O)CCc1ccoc1)[C@@H]1CC[C@@]2(O)[C@H]3Cc4cccc5c4[C@@]2(CCN3CC2CC2)[C@H]1O5 [Compound 3, 17-Cyclopropylmethyl-4,5α-epoxy-6β-[3′-(furan-3″-yl)-N-methylpropanamido]-14β-hydroxymorphinan Hydrochloride]	891 ± 52.5 nM	34.5 ± 6.27 nM		43.8 ± 2.85 nM	224 ± 44.9 nM	13.8 ± 1.86%			5780 ± 829 nM	66.9 ± 3.52%	26	lack of significant antinociceptive effect	246 ± 29.2 nM	86.42 ± 0.63%	1		
O=C(CCc1ccoc1)N[C@@H]1CC[C@@]2(O)[C@H]3Cc4cccc5c4[C@@]2(CCN3CC2CC2)[C@H]1O5 [Compound 4, 17-Cyclopropylmethyl-4,5α-epoxy-6β-[3′-(furan-3″-yl)propanamido]-14β-hydroxymorphinan Hydrochloride]	749 ± 59.1 nM	8.37 ± 1.44 nM		17.3 ± 1.68 nM	185 ± 38 nM	14.2 ± 1.27%			1690 ± 116 nM	55.8 ± 2.39%	90		117 ± 21.2 nM	81.4 ± 7.72%	2		
CN(C(=O)CCc1ccoc1)[C@H]1CC[C@@]2(O)[C@H]3Cc4ccc(O)c5c4[C@@]2(CCN3CC2CC2)[C@H]1O5 [Compound 5, 17-Cyclopropylmethyl-3,14β-dihydroxy-4,5α-epoxy-6α-[3′-(furan-3″-yl)-N-methylpropanamido]morphinan Hydrochloride]	0.59 ± 0.06 nM	0.13 ± 0.02 nM	subnanomolar	0.18 ± 0.02 nM	0.37 ± 0.05 nM	17.9 ± 1.81%			0.75 ± 0.09 nM	68.3 ± 1%						subnanomolar	subnanomolar
CN(C(=O)CCc1ccoc1)[C@@H]1CC[C@@]2(O)[C@H]3Cc4ccc(O)c5c4[C@@]2(CCN3CC2CC2)[C@H]1O5 [Compound 7, 17-Cyclopropylmethyl-3,14β-dihydroxy-4,5α-epoxy-6β-[3′-(furan-3″-yl)-N-methylpropanamido]morphinan Hydrochloride]	8.42 ± 0.9 nM	0.28 ± 0.05 nM	subnanomolar	0.53 ± 0.06 nM	4.3 ± 0.47 nM	12.2 ± 0.92%	0.443 mg/kg	≥ 80%	19.2 ± 1.62 nM	51.4 ± 2.78%			0.99 ± 0.04 nM	102 ± 1.05%			subnanomolar
CN(C(=O)CCc1ccco1)[C@H]1CC[C@@]2(O)[C@H]3Cc4cccc5c4[C@@]2(CCN3CC2CC2)[C@H]1O5 [Compound 9, 17-Cyclopropylmethyl-4,5α-epoxy-6α-[3′-(furan-2″-yl)N-methylpropanamido]-14β-hydroxymorphinan Hydrochloride]	46.8 ± 8.37 nM	1 ± 0.18 nM		14.1 ± 1.4 nM	76.5 ± 48.5 nM	11.2 ± 1.55%			212 ± 33.8 nM	70.5 ± 5.9%	47	lack of significant antinociceptive effect	18.4 ± 1.05 nM	91.4 ± 1.46%	14		
